Target: gelatinase B (Homo sapiens, UniProt P14780)
Assay: Gelatinase B inhibiting activity of synovial fluid recovered after intraarticular administration
Assay type: in vivo, rats
Parameters: purchased Roche Diagnostics Co., Ltd
Settings: Fig. 7
Experimental: The following agents (1 to 3) were administered into right knee joints of 9-10 week old rats (n=4 to 10) and the animals were sacrificed at time intervals; the joint cavities were washed with a total 0.5 ml of a physiological saline to recover a synovial fluid. • Agent 1: 30 nmol of compound 1 • Agent 2: a mixture of 30 nmol of compound 1 and 0.3 mg of HA • Agent 3: 0.3 mg of "conjugate 4" (having compound 1 bound in an amount equivalent to 30 nmol)
By using a kit for measuring gelatinase activity manufactured by Roche Diagnostics, the inhibiting activity of the synovial fluid against gelatinase B was calculated according to the following formula. Gelatinase B Inhibition Activity (%) = [(Enzymatic Activity in the Absence of Synovial Fluid - Enzymatic Activity in the Presence of Added Synovial Fluid)/Enzymatic Activity in the Absence of Synovial Fluid] x 100 [formula]
The results were shown by a mean value ± standard deviation. The gelatinase B inhibiting activity of the synovial fluid from the group administered compound 1 alone and the group administered the mixture of compound 1 and HA decreased to 20% two hours after administration and to less than 5% 17 hours after administration while in the group administered "conjugate 4" about 50% of the gelatinase B inhibiting activity remained 17 hours after administration.

Chain of gelatinase B (P14780 94-707, species assumed): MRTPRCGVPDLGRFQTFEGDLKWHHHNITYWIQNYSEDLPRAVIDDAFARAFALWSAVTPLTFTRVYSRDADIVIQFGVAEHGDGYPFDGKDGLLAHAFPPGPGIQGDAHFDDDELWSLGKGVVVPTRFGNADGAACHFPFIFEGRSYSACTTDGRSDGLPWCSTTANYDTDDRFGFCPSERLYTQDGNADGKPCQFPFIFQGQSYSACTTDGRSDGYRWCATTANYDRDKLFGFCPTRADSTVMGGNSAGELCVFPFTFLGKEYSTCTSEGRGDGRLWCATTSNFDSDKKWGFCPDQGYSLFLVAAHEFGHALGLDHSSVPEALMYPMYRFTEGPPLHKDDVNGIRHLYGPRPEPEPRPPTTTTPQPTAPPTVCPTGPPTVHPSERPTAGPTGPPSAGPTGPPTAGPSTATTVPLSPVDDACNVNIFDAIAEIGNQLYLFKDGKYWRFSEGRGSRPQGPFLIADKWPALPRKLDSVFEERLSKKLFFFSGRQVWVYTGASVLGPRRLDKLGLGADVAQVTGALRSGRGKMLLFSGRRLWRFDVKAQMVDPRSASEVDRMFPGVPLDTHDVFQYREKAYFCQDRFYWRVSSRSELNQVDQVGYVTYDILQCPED

CNC(=O)[C@H](Cc1c[nH]c2ccccc12)NC(=O)C(CC(=O)NO)CC(C)C (stereo partly drawn) [compound 1, N-[2-isobutyl-3-(N'-hydroxycarbonylamido)propanoyl]-L-tryptophan methylamide]
gelatinase B inhibiting activity of the synovial fluid (17 hours after administration into rat right knee joint): less than 5% | gelatinase B inhibiting activity of the synovial fluid (two hours after administration into rat right knee joint): 20%
